According to ChEMBL document CHEMBL1201862, “PubChem BioAssay data set” (2004):
Values joined by “and” are separate entries in the source; they are usually repeats but may differ in a detail not shown here. Equal values may be shown once. Active and inactive are the calls of the source.

Legend:
[1] = tested on: Streptococcus sp. 'group A'; experiment: Streptococcus pyogenes SK(-)GAS viability under kanamycin – luminescence, BacTiterGlo, confirmation, counter-screen for streptokinase expression inhibitor project, dose response (AID 1900); assay type: functional, organism-based
Streptokinase A = molecular target: T1, Streptokinase A (Streptococcus pyogenes serotype M1, UniProt P10520); experiment: viability-normalized secreted streptokinase activity reduction – plasminogen activation absorbance, OD405, dose response (AID 1914); assay type: functional, Streptococcus pyogenes M1 GAS;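 note: secreted streptokinase activity via plasminogen activation per viability signal from cell pellet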
T1 sequence (P10520 whole entry): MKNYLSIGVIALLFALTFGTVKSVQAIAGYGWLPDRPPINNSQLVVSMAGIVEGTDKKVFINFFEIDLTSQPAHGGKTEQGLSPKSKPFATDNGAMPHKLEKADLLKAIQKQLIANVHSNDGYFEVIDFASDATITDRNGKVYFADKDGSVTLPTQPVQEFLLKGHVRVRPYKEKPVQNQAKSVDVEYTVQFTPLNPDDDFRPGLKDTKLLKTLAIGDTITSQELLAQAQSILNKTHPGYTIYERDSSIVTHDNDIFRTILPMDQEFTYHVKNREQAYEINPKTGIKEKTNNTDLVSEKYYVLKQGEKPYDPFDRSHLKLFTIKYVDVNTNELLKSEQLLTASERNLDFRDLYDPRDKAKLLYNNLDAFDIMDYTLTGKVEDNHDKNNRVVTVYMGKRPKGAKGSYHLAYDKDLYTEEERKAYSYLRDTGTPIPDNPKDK

Streptococcus = experiment: GAS UMAA2166 growth inhibition – luminescence, BacTiterGlo, counter-screen for streptokinase expression inhibitor project, dose response (AID 1915); assay type: functional, organism-based;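 note: potency for reduction of bacterial viability or growth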
X-box-binding protein 1 = X-box-binding protein 1 (Homo sapiens, UniProt P17861); assay type: functional, Cricetulus griseus;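 note: confirmatory dose-response counter-screen serving a CHOP assay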
Chain of X-box-binding protein 1 (P17861 whole entry): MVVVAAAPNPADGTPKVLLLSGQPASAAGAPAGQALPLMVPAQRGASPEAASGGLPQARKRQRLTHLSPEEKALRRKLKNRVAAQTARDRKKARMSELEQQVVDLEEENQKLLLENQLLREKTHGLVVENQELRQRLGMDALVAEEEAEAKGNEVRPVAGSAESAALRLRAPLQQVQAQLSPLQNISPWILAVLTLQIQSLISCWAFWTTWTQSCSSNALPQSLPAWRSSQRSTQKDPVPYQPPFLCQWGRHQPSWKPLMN

Genome polyprotein = Genome polyprotein (Hepatitis C virus, UniProt Q2Q167); experiment: disruption of hepatitis C core self-association – biochemical, TR-FRET, dose response (AID 2159); parameters: species or system Hepacivirus hominis;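 note: blocks dimerization of HCV core protein measured by TR-FRET between tagged core106 pairs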
Chain of Genome polyprotein (Q2Q167 whole entry): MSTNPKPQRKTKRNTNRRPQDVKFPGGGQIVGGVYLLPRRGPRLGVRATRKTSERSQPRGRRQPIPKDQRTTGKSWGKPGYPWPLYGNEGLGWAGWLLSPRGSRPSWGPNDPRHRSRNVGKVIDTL

[2] = DNA intercalator displacement (FID) – biochemical, fluorescence, counter-screen for HCV NS3 helicase inhibitor project, dose response (AID 2172)
Bcl-2-like protein 10 = Bcl-2-like protein 10 (Homo sapiens, UniProt Q9HD36); experiment: Bcl-B/TR3 peptide binding disruption – biochemical, fluorescence polarization, FITC-TR3 peptide, selectivity assay for Bfl-1 inhibitor project, primary screen (AID 748);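 note: fluorescence polarization from a fluorescein-labelled TR3 peptide binding purified Bcl-B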
Chain of Bcl-2-like protein 10 (Q9HD36 whole entry): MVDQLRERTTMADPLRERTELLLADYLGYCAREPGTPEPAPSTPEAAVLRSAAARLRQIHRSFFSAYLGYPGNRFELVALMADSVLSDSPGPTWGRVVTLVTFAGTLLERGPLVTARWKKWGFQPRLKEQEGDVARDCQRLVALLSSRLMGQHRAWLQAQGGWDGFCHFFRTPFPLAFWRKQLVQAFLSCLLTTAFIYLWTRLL

NS3 = NS3 (Hepatitis C virus, UniProt A3EZJ3); experiment: PubChem AID 2173; parameters: species or system Hepacivirus hominis
Chain of NS3 (A3EZJ3 whole entry): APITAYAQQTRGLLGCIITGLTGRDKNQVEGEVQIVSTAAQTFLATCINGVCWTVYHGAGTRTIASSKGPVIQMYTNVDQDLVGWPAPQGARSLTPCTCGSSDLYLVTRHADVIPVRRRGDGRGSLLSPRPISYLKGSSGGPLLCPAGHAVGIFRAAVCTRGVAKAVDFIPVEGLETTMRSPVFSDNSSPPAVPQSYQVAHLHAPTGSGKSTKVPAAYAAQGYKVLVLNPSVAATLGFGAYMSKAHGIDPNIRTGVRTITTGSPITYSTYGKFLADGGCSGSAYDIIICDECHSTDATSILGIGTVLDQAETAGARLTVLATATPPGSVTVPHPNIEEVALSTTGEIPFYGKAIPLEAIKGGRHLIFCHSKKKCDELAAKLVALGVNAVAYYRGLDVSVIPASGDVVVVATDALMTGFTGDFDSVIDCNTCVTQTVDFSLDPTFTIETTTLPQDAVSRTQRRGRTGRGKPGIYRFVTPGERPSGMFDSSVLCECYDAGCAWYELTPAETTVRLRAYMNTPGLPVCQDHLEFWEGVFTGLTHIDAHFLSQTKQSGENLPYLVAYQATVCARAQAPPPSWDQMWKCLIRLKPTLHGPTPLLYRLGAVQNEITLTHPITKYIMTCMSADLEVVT

[3] = molecular target: Protein-tyrosine kinase 2-beta (Homo sapiens, UniProt Q14289);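 note: potency of inhibitors of PYK2 kinase phosphorylation of poly-GT substrate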
Chain of Protein-tyrosine kinase 2-beta (Q14289 whole entry): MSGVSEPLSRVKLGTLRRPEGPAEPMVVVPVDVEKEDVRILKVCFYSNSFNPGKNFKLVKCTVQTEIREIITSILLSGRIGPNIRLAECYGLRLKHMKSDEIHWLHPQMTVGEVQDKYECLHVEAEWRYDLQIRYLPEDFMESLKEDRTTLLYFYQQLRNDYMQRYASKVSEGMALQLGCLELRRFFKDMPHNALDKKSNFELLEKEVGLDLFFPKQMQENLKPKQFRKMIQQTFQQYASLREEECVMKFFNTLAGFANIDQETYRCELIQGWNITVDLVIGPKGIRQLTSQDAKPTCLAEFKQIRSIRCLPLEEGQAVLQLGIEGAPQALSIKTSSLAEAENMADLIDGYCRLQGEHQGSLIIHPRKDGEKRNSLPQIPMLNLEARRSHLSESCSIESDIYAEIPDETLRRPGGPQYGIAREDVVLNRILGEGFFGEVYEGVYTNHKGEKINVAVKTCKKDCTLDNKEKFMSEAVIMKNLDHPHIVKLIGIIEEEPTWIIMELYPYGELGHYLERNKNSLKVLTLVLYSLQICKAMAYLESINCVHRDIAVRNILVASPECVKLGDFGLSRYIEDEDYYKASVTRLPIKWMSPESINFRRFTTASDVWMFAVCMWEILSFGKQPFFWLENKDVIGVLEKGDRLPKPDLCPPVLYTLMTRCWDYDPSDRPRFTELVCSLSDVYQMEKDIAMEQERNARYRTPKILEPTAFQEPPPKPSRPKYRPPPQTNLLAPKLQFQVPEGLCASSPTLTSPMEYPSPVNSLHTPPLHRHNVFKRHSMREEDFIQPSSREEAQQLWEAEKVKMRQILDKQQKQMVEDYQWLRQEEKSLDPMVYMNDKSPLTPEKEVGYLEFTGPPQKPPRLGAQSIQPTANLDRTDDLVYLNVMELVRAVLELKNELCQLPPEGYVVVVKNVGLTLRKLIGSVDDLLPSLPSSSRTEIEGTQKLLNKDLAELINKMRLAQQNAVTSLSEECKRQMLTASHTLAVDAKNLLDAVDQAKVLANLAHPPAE

[4] = molecular target: T2, Tyrosine-protein phosphatase non-receptor type 7 (Homo sapiens, UniProt P35236); experiment: redox-active compounds inhibiting HePTP phosphatase – biochemical, fluorescence, mechanism study (AID 2068); assay type: functional
T2 sequence (P35236 whole entry): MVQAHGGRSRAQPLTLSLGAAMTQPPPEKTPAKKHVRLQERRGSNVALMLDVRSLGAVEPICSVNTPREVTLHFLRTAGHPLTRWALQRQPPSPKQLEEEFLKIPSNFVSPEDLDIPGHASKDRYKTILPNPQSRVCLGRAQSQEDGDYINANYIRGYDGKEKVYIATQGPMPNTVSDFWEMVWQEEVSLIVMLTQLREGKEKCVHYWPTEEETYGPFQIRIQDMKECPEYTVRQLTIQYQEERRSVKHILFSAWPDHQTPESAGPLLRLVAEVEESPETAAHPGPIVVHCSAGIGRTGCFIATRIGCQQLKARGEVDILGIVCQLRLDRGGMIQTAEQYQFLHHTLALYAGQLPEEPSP

[5] = molecular target: Eukaryotic translation initiation factor 4E (Mus musculus, UniProt P63073); experiment: blockers of eIF4G binding by eIF4E – biochemical, TR-FRET, dose response (AID 855); assay type: functional;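 note: potency for disrupting eIF4E binding to eIF4GI seen as loss of FRET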
Chain of Eukaryotic translation initiation factor 4E (P63073 whole entry): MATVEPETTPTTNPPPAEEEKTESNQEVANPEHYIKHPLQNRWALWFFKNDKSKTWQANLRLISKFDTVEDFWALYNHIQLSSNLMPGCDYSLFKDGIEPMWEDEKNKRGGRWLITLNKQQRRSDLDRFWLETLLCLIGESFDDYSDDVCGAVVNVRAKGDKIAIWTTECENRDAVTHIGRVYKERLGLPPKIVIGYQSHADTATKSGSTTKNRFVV

[6] = molecular target: Cyclin-dependent kinase 5/CDK5 activator 1 (Homo sapiens, UniProt Q00535); experiment: blockade of human CDK5 activity – biochemical, cherry-picked samples, set 2, dose response (AID 504545)
Chain of Cyclin-dependent kinase 5/CDK5 activator 1 (Q00535 whole entry): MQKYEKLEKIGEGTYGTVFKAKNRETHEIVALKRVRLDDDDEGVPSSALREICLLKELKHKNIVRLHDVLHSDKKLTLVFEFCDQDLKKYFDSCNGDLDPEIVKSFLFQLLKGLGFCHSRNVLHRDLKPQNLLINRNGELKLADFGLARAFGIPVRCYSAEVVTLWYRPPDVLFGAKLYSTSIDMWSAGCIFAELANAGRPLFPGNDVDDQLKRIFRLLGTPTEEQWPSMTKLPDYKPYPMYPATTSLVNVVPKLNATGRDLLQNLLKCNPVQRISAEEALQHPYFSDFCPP
Chain of Cyclin-dependent kinase 5/CDK5 activator 1 (Q15078 whole entry, further chain): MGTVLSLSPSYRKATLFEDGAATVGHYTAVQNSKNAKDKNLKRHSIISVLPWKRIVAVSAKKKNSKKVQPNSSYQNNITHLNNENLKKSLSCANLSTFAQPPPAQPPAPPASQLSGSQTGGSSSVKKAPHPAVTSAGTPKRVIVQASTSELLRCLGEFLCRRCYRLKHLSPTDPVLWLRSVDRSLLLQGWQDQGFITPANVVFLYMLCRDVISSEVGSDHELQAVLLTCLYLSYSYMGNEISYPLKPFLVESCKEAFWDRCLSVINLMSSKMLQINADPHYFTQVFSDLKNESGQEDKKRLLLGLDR

[7] = molecular target: Dual specificity tyrosine-phosphorylation-regulated kinase 1A (Rattus norvegicus, UniProt Q63470); assay type: biochemical, Homo sapiens
[8] = blockers of HIV-1 envelope-mediated cell-cell fusion – cherry-pick, dose response (AID 652057); assay type: functional, cell-based
[9] = viability loss in CEM21 cells – cell-based, CellTiter-Glo luminescence, cherry-picked, cytotoxicity control for viral fusion inhibitor project, dose response (AID 652042); assay type: functional;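 note: potency for signal decrease meaning cytotoxicity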
[10] = blockers of HIV-1 ZM109 envelope-driven cell-cell fusion – HeLa effector, CEM target cells, luciferase, cherry-pick, dose response (AID 652058); assay type: functional, cell-based;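 note: luciferase signal from HIV-1 Env mediated cell-cell fusion of effector and target cells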
Paired box protein Pax-8 = Paired box protein Pax-8 (Homo sapiens, UniProt Q06710); experiment: PAX8 transcriptional activity inhibition in RMG-I – RMG-I cells, luciferase, cherry-pick, dose response (AID 687027); assay type: functional, cell-based;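 note: luciferase reporter driven by Pax8 target thyroperoxidase promoter measured by SteadyGlo luminescence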
Chain of Paired box protein Pax-8 (Q06710 whole entry, the tested form may be a part): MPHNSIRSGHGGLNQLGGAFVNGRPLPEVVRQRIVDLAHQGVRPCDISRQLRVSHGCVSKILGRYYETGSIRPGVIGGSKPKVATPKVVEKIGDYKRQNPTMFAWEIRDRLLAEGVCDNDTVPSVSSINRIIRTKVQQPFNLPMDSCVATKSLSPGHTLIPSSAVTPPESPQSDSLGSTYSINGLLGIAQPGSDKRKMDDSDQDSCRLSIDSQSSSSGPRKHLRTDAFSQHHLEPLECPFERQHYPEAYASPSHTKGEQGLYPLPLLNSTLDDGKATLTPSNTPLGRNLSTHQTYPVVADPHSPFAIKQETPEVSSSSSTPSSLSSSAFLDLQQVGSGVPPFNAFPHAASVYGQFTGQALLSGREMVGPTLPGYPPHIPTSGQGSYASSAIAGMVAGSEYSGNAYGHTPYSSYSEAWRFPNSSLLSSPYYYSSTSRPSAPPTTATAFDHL

[11] = off-target signal loss in HeLa-CEM21 co-culture – HeLa F-luc CTL cells, cherry-picked, counter-screen for HIV-1 Env fusion inhibitor project, dose response (AID 652040); assay type: functional, cell-based;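 note: potency for signal decrease marking cytotoxic or nonspecific inhibition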
[12] = HIV-1 AD8 envelope cell-cell fusion blockers – cherry-pick, dose response (AID 652062); assay type: functional, cell-based;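 note: luciferase signal from cell-cell fusion driven by HIV-1 clade B AD8 Env; potency is for inhibitors of fusion seen as a drop in luminescence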
[13] = Cytotoxicity screening for potential Inhibitors of Bacterial Capsule Biogenesis. [Related pubchem assays (depositor defined):AID488970]; assay type: functional
Nonstructural protein 1 = Nonstructural protein 1 (Influenza A virus, UniProt Q194T2); assay type: functional, Influenza A virus (A/California/07/2009(H1N1))
Chain of Nonstructural protein 1 (Q194T2 whole entry): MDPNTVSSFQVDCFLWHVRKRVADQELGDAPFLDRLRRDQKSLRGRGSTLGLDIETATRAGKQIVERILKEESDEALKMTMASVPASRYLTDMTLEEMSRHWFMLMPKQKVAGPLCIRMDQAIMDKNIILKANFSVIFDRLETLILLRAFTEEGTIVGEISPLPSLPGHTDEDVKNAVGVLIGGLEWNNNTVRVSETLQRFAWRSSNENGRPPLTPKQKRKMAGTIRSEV

[14] = viability loss in HeLa cells – cytotoxicity control for MgcRacGAP inhibitor project, dose response (AID 624300); assay type: functional
[15] = molecular target: T3, Rac GTPase-activating protein 1 (Homo sapiens, UniProt Q9H0H5); experiment: blockers of MgcRacGAP-driven Rac1 GTP hydrolysis – biochemical, ADP Hunter fluorescence, primary and confirmatory, confirmation (AID 624330); assay type: functional
T3 sequence (Q9H0H5 whole entry): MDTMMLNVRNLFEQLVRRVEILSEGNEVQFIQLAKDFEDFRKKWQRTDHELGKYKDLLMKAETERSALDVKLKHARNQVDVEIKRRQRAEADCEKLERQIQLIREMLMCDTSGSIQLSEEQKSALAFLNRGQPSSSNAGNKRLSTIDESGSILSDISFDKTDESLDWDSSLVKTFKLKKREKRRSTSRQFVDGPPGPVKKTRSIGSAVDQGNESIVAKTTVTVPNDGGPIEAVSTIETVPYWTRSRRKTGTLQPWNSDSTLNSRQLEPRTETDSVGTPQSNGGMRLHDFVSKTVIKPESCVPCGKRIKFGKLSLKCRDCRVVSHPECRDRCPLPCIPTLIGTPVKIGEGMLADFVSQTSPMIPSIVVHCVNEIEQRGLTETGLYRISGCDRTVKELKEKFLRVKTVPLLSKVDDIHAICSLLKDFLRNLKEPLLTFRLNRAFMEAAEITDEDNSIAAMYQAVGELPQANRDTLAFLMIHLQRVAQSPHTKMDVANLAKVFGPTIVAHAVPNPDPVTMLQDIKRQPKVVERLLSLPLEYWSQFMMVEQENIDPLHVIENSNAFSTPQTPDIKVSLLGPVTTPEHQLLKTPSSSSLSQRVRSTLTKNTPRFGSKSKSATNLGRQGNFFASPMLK

[16] = molecular target: T4, DNA repair protein RAD52 homolog (Homo sapiens, UniProt P43351); assay type: functional, biochemical
T4 sequence (P43351 whole entry): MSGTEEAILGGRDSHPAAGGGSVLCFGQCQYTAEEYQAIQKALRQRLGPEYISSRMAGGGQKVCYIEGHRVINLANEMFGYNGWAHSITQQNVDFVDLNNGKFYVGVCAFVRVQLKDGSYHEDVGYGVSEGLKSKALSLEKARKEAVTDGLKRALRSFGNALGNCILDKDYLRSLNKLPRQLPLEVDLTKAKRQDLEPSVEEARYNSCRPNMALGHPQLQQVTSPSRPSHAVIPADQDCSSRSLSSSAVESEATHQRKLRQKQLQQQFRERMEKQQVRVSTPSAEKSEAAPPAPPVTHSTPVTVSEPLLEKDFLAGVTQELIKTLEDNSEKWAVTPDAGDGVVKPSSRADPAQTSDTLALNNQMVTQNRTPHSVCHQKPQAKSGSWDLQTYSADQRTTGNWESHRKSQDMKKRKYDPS

[17] = molecular target: T5, Histone-lysine N-methyltransferase NSD2 (Homo sapiens, UniProt O96028); assay type: biochemical
T5 sequence (O96028 whole entry): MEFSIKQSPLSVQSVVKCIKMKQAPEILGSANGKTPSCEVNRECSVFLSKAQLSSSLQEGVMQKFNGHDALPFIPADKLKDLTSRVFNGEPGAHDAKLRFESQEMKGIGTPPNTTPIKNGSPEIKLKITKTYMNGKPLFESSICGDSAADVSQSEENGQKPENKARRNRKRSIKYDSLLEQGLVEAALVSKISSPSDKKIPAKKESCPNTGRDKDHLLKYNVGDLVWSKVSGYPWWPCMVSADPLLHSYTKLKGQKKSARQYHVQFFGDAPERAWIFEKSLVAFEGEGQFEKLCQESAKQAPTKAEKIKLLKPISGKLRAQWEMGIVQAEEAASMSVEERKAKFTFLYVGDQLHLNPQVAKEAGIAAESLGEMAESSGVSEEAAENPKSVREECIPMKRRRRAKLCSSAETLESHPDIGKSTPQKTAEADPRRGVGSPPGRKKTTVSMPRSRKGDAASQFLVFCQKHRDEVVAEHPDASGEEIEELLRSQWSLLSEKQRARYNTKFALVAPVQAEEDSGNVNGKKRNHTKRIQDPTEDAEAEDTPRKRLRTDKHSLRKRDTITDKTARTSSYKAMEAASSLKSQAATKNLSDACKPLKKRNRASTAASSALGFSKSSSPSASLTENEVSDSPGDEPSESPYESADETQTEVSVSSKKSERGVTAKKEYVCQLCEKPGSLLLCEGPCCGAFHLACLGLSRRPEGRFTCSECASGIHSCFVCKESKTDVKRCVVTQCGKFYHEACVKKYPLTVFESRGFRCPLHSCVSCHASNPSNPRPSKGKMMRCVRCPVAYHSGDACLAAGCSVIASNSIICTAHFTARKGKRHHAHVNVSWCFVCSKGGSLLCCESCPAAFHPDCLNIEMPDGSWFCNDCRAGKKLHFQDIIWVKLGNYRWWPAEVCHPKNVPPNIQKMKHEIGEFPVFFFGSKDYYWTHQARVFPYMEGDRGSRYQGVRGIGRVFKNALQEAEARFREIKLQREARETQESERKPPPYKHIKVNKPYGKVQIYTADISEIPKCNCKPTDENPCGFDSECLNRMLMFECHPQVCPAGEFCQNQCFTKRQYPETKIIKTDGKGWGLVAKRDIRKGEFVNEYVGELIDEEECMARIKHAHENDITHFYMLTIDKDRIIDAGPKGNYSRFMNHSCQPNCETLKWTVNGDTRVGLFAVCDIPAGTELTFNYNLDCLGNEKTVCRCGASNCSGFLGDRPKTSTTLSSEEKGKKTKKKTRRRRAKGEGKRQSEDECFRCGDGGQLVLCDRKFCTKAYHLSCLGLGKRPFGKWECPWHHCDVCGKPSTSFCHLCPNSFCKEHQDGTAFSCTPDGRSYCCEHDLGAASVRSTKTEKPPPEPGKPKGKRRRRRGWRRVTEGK

[18] = HGIII-sPLA2 enzyme inhibition potency – biochemical, QFRET, IC50, dose response (AID 743457);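 note: green fluorescence rise as the enzyme cleaves BODIPY PC-A2 in liposomes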

## Cc1cc(O)c(NC(=S)NC(=O)c2ccc(-c3ccc(Cl)cc3)o2)cc1C
[1]
  EC50: 959 nM (active)
Streptokinase A
  EC50: > 150000 nM (not active)
Streptococcus
  EC50: 12200 nM (active)
X-box-binding protein 1
  Absolute IC50 (XBP1): 10000 nM

## CC(=O)c1ccc(NC(=O)c2ccc3nc(-c4ccco4)c(-c4ccco4)nc3c2)cc1
Genome polyprotein
  IC50: > 49800 nM (not active)
[2]
  IC50: 83500 nM (not active)
Bcl-2-like protein 10
  IC50: 14600 nM (active)
NS3
  IC50: 5880 nM (active)
[3]
  IC50: 1240 nM (active)
[4]
  IC50: 998 nM (active) and 805 nM (active)
[5]
  IC50: > 64000 nM (inactive)

## N#Cc1c(N)n(C2OC(CO)C(O)C2O)c2ncnc(N)c12 (configuration not stated)
[6]
  AC50: 8580 nM (active)
[7]
  AC50: 120 nM (active)
[8]
  AC50: 609 nM (active)
[9]
  AC50: < 260 nM (active)
[10]
  AC50: 822 nM (active)
Paired box protein Pax-8
  AC50: < 260 nM (active)
[11]
  AC50: 663 nM (active)
[12]
  AC50: 2860 nM (active)

## O=C1c2c(O)ccc(O)c2C(=O)c2c(NCCNCCO)ccc(NCCNCCO)c21 [MITOXANTRONE]
[13]
  CC50: < 380 nM (active)
Nonstructural protein 1
  IC50: 2050 nM (active)
[7]
  AC50: 1250 nM (active)
[14]
  CC50: 6340 nM (active)
[15]
  IC50: 14500 nM (active)
[16]
  AC50: < 244 nM (active)
[17]
  AC50: 2340 nM (active)
[18]
  IC50: > 122000 nM (inactive)
